Experimental data: PubChem BioAssay AID330 (DTP/NCI, 2004)
Where “and” joins values, the source holds several entries; their conditions need not be identical. Equal values may be shown once. Inconclusive results and toxic doses are left out.

Test system: P388 leukemia ip, CD2F1 mice, survival T/C
Experiment: NCI In Vivo Anticancer Drug Screen. Data for tumor model P388 Leukemia (intraperitoneal) in CD2F1 (CDF1) mice
Conditions: endpoint: median survival time, higher = longer survival
How it was run: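 Mice carrying the transplanted tumor received test compound or vehicle. Survival was recorded in each group, and the value is the treated-group measurement divided by that of the vehicle-treated control group.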

[1] = dose: 60.0 mg/kg/injection, schedule: Q01DX005 (ip), vehicle: saline with Tween-80
[2] = dose: 120.0 mg/kg/injection, schedule: Q01DX005 (ip), vehicle: saline with Tween-80
[3] = dose: 240.0 mg/kg/injection, schedule: Q01DX005 (ip), vehicle: saline with Tween-80
[4] = dose: 50.0 mg/kg/injection, schedule: Q01DX009 (ip), vehicle: Klucel (hydroxypropylcellulose) (HPC)
[5] = dose: 100.0 mg/kg/injection, schedule: Q01DX009 (ip), vehicle: Klucel (hydroxypropylcellulose) (HPC)
[6] = dose: 200.0 mg/kg/injection, schedule: Q01DX009 (ip), vehicle: Klucel (hydroxypropylcellulose) (HPC)
[7] = dose: 50.0 mg/kg/injection, schedule: Q01DX005 (ip), vehicle: saline
[8] = dose: 100.0 mg/kg/injection, schedule: Q01DX005 (ip), vehicle: saline
[9] = dose: 200.0 mg/kg/injection, schedule: Q01DX005 (ip), vehicle: saline
[10] = dose: 50.0 mg/kg/injection, schedule: Q01DX005 (ip), vehicle: saline with Tween-80
[11] = dose: 100.0 mg/kg/injection, schedule: Q01DX005 (ip), vehicle: saline with Tween-80
[12] = dose: 200.0 mg/kg/injection, schedule: Q01DX005 (ip), vehicle: saline with Tween-80
[13] = dose: 60.0 mg/kg/injection, schedule: Q01DX005 (ip), vehicle: Klucel (hydroxypropylcellulose) (HPC)
[14] = dose: 120.0 mg/kg/injection, schedule: Q01DX005 (ip), vehicle: Klucel (hydroxypropylcellulose) (HPC)
[15] = dose: 240.0 mg/kg/injection, schedule: Q01DX005 (ip), vehicle: Klucel (hydroxypropylcellulose) (HPC)
[16] = dose: 100.0 mg/kg/injection, schedule: Q04DX003 (ip), vehicle: saline with Tween-80
[17] = dose: 200.0 mg/kg/injection, schedule: Q04DX003 (ip), vehicle: saline with Tween-80
[18] = dose: 400.0 mg/kg/injection, schedule: Q04DX003 (ip), vehicle: saline with Tween-80

With `O=C(Nc1cccc2ccccc12)OCCN=Cc1ccccc1O.O=C(Nc1cccc2ccccc12)OCCN=Cc1ccccc1O.[Cu]` the T/C (dose: 100.0 mg/kg/injection, schedule: Q04DX002 (ip), vehicle: saline with Tween-80) was 94 % of control, the T/C (dose: 200.0 mg/kg/injection, schedule: Q04DX002 (ip), vehicle: saline with Tween-80) was 94 % of control and the T/C (dose: 400.0 mg/kg/injection, schedule: Q04DX002 (ip), vehicle: saline with Tween-80) was 107 % of control and 94 % of control.
With `COc1ccc(COCc2ccc(OC)c(O)c2)cc1O` the T/C (dose: 50.0 mg/kg/injection, schedule: Q01DX009 (ip), vehicle: saline with Tween-80) was 101 % of control and the T/C (dose: 100.0 mg/kg/injection, schedule: Q01DX009 (ip), vehicle: saline with Tween-80) was 99 % of control.
`NC(CCCCCCCCCCCCC(N)C(=O)c1ccccc1)C(=O)c1ccccc1` (stereo not drawn) was tested, and the T/C [1] was 101 % of control, the T/C [2] was 93 % of control and the T/C [3] was 93 % of control.
For `CCOC(=O)c1oc2cc(O)ccc2c(=O)c1-c1ccc(OC)c(OC)c1`, the T/C [1] was 96 % of control, the T/C [2] was 87 % of control and the T/C [3] was 86 % of control.
In the case of `CCC(NC(C)C)C(O)c1ccc(O)c2[nH]c(=O)ccc12` (stereo not drawn), the T/C [4] is reported as 104 % of control, the T/C [5] is reported as 99 % of control and the T/C [6] is reported as 96 % of control.
`C=C1CCN(c2ccc(C)cc2)C1=O` was tested, and the T/C (dose: 4.0 mg/kg/injection, schedule: Q01DX009 (ip), vehicle: saline + alcohol) was 100 % of control, the T/C (dose: 8.0 mg/kg/injection, schedule: Q01DX009 (ip), vehicle: saline + alcohol) was 100 % of control and the T/C (dose: 16.0 mg/kg/injection, schedule: Q01DX009 (ip), vehicle: saline + alcohol) was 96 % of control. The T/C (dose: 64.0 mg/kg/injection, schedule: Q01DX009 (ip), vehicle: saline + alcohol) was 94 % of control.
`CN1C(=O)N(CCCl)C(=O)C(C)(C2=CCCCC2)C1=O` (stereo not drawn) was tested, and the T/C [4] was 92 % of control, the T/C [5] was 92 % of control and the T/C [6] was 90 % of control.
In the case of `Cc1nc(N)nc2c1CCC(O)S2` (stereo not drawn), the T/C [7] is reported as 98 % of control, the T/C [8] is reported as 102 % of control and the T/C [9] is reported as 96 % of control.
In the case of `O=C1C2C3C=CC(O3)C2C(=O)N1N=C1CCCCC1` (stereo not drawn), the T/C [10] is reported as 99 % of control, the T/C [11] is reported as 101 % of control and the T/C [12] is reported as 101 % of control.
For `O=C1CC2CCCCC2CC1c1ccccc1` (stereo not drawn), the T/C [4] was 104 % of control, the T/C [5] was 88 % of control and the T/C [6] was 95 % of control.
With `COC(=O)n1sc(SC)nc1=N` the T/C (dose: 12.5 mg/kg/injection, schedule: Q01DX005 (ip), vehicle: Klucel (hydroxypropylcellulose) (HPC)) was 88 % of control, the T/C (dose: 25.0 mg/kg/injection, schedule: Q01DX005 (ip), vehicle: Klucel (hydroxypropylcellulose) (HPC)) was 114 % of control and the T/C (dose: 50.0 mg/kg/injection, schedule: Q01DX005 (ip), vehicle: Klucel (hydroxypropylcellulose) (HPC)) was 100 % of control and 114 % of control.
For `CC(=O)N1c2ccccc2N(C(C)=O)c2nc3ccccc3nc21`, the T/C [4] was 100 % of control, the T/C [5] was 100 % of control and the T/C [6] was 100 % of control.
`Nc1cc(C(F)(F)F)ccc1S` was tested, and the T/C (dose: 3.0 mg/kg/injection, schedule: Q01DX009 (ip), vehicle: DMSO) was 94 % of control, the T/C (dose: 6.0 mg/kg/injection, schedule: Q01DX009 (ip), vehicle: DMSO) was 103 % of control and the T/C (dose: 12.5 mg/kg/injection, schedule: Q01DX009 (ip), vehicle: DMSO) was 90 % of control.
For `O=c1[nH]nc(-c2ccccc2)c2nc3ccccc3n12`, the T/C [13] was 88 % of control, the T/C [14] was 87 % of control and the T/C [15] was 88 % of control.
`CC(=O)NC1C(NNC(=O)c2ccncc2)OC(CO)C(O)C1O` (stereo not drawn) was tested, and the T/C [7] was 100 % of control, the T/C [8] was 96 % of control and the T/C [9] was 104 % of control.
`O=C(O)C(Nc1ccccn1)(c1ccccc1)c1ccccc1` was tested, and the T/C [13] was 102 % of control, the T/C [14] was 102 % of control and the T/C [15] was 98 % of control.
For `CNC/C(Cl)=N/S(=O)(=O)c1ccc(C)cc1`, the T/C [1] was 99 % of control, the T/C [2] was 99 % of control and the T/C [3] was 105 % of control.
With `CC1=C(C)C(=O)OC(C(C)C2CCC3C4CC5OC56C(O)CCC(=O)C6(C)C4CCC23C)C1` (stereo not drawn) the T/C (dose: 11.3 mg/kg/injection, schedule: Q01DX009 (ip), vehicle: Klucel (hydroxypropylcellulose) (HPC)) was 101 % of control, the T/C (dose: 22.6 mg/kg/injection, schedule: Q01DX009 (ip), vehicle: Klucel (hydroxypropylcellulose) (HPC)) was 101 % of control and the T/C (dose: 45.2 mg/kg/injection, schedule: Q01DX009 (ip), vehicle: Klucel (hydroxypropylcellulose) (HPC)) was 100 % of control.
With `CC#CCOCC(O)CO` (stereo not drawn) the T/C (dose: 12.5 mg/kg/injection, schedule: Q01DX009 (ip), vehicle: water) was 105 % of control, the T/C (dose: 25.0 mg/kg/injection, schedule: Q01DX009 (ip), vehicle: water) was 108 % of control and the T/C (dose: 50.0 mg/kg/injection, schedule: Q01DX009 (ip), vehicle: water) was 121 % of control. The T/C (dose: 67.0 mg/kg/injection, schedule: Q01DX009 (ip), vehicle: water) was 120 % of control.
For `Cc1c(Cl)cccc1NS(=O)(=O)c1ccccc1`, the T/C [16] was 104 % of control, the T/C [17] was 104 % of control and the T/C [18] was 90 % of control.
`c1ccc2c(-c3nccc4ccccc34)nccc2c1` was tested, and the T/C [10] was 99 % of control, the T/C [11] was 103 % of control and the T/C [12] was 92 % of control.
For `CC(C(=O)O)c1ccc2oc(-c3ccc(Cl)cc3)nc2c1` (stereo not drawn), the T/C (dose: 50.0 mg/kg/injection, schedule: Q01DX009 (ip), vehicle: suspension in saline) was 104 % of control, the T/C (dose: 100.0 mg/kg/injection, schedule: Q01DX009 (ip), vehicle: suspension in saline) was 100 % of control and the T/C (dose: 200.0 mg/kg/injection, schedule: Q01DX009 (ip), vehicle: suspension in saline) was 100 % of control.
`O=c1[nH]c(=O)c2nc(-c3ccc(Cl)cc3)cnc2[nH]1` was tested, and the T/C [16] was 94 % of control, the T/C [17] was 102 % of control and the T/C [18] was 101 % of control.
For `C[CH2][Sn]([Cl])([Cl])[CH2]C`, the T/C (dose: 1.56 mg/kg/injection, schedule: Q04DX003 (ip), vehicle: saline) was 104 % of control, the T/C (dose: 3.12 mg/kg/injection, schedule: Q04DX003 (ip), vehicle: saline) was 111 % of control and 113 % of control and 116 % of control and the T/C (dose: 6.25 mg/kg/injection, schedule: Q04DX003 (ip), vehicle: saline) was 118 % of control [middle of 5 runs]. For the same compound, the T/C (dose: 12.5 mg/kg/injection, schedule: Q04DX003 (ip), vehicle: saline) was 121 % of control and 101 % of control and 115 % of control and the T/C (dose: 25.0 mg/kg/injection, schedule: Q04DX003 (ip), vehicle: saline) was 153 % of control.
In the case of `CC(C)=CCCC(C)(OC1OC(COC2OC(CO)C(O)C2O)C(O)C(O)C1O)C1CCC2(C)C1C(O)CC1C3(C)CCC(OC4OC(CO)C(O)C(O)C4OC4OC(CO)C(O)C(O)C4O)C(C)(C)C3CCC12C` (stereo not drawn), the T/C (dose: 2.0 mg/kg/injection, schedule: Q01DX009 (ip), vehicle: Klucel (hydroxypropylcellulose) (HPC)) is reported as 88 % of control, the T/C (dose: 4.0 mg/kg/injection, schedule: Q01DX009 (ip), vehicle: Klucel (hydroxypropylcellulose) (HPC)) is reported as 95 % of control and the T/C (dose: 8.0 mg/kg/injection, schedule: Q01DX009 (ip), vehicle: Klucel (hydroxypropylcellulose) (HPC)) is reported as 104 % of control. For the same compound, the T/C (dose: 16.0 mg/kg/injection, schedule: Q01DX009 (ip), vehicle: Klucel (hydroxypropylcellulose) (HPC)) was 114 % of control and the T/C (dose: 32.0 mg/kg/injection, schedule: Q01DX009 (ip), vehicle: Klucel (hydroxypropylcellulose) (HPC)) was 98 % of control.
With `CC(=O)OCC1OC(n2cnc3c(=S)nc(N)[nH]c32)CC1OC(C)=O` (stereo not drawn) the T/C (dose: 1.25 mg/kg/injection, schedule: Q04DX003 (ip), vehicle: saline with Tween-80) was 102 % of control, the T/C (dose: 2.5 mg/kg/injection, schedule: Q04DX003 (ip), vehicle: saline with Tween-80) was 106 % of control and the T/C (dose: 5.0 mg/kg/injection, schedule: Q04DX003 (ip), vehicle: saline with Tween-80) was 113 % of control and 123 % of control. For the same compound, the T/C (dose: 20.0 mg/kg/injection, schedule: Q04DX003 (ip), vehicle: saline with Tween-80) was 156 % of control and 158 % of control and 159 % of control and the T/C (dose: 30.0 mg/kg/injection, schedule: Q04DX003 (ip), vehicle: saline with Tween-80) was 174 % of control.
With `CN(OC(=O)C(C)(C)C)C(=O)C(C)(C)C` the T/C [11] was 106 % of control, the T/C [12] was 105 % of control and the T/C (dose: 400.0 mg/kg/injection, schedule: Q01DX005 (ip), vehicle: saline with Tween-80) was 108 % of control.
